The target of the first experiment is Human Factor D (Homo sapiens (Human), UniProt P00746). The experiment in a line: Human Factor D Assay. Type of experiment: biochemical. The conditions noted are these: Table 6; Human Factor D 80 nM, substrate Z-L-Lys-SBzl; read-out: IC5 (Stars). On the procedure: Human Factor D (purified from human serum, Complement Technology, Inc.) at 80 nM final concentration is incubated with test compound at various concentrations for 5 min at room temperature in 50 mM Tris, 1M NaCl, pH 7.5. A synthetic substrate Z-L-Lys-SBzl and DTNB (Ellman's reagent) are added to final concentrations of 100 μM each. Absorbance at 405 nm (A405) is recorded at 30 second intervals for 30 min using a microplate spectrophotometer. IC50 values are calculated by nonlinear regression of Complement Factor D reaction rates as a function of test compound concentration.
Sequence of Human Factor D (P00746 26-253): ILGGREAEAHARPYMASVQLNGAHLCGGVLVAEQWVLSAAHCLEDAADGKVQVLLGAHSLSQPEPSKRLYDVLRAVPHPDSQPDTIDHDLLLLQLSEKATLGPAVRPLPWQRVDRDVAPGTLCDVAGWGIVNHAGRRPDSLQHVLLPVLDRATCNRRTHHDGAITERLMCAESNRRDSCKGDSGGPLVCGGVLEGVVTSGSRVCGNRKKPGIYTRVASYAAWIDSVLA
For the molecule `CC(=O)c1nn(CC(=O)N2C(C(=O)Nc3nc(Br)ccc3C)C[C@]3(C)C[C@H]23)c2ccc(OCCS(=O)(=O)CC3(C)COC3)cc12` (stereo partly drawn) [Compound T-56, (1S,5S)-2-(2-(3-acetyl-5-(2-(((3-methyloxetan-3-yl)methyl)sulfonyl)ethoxy)-1H-indazol-1-yl)acetyl)-N-(6-bromo-3-methylpyridin-2-yl)-5-methyl-2-azabicyclo[3.1.0]hexane-3-carboxamide], the IC50 was in the range of 1 to 10 µM.

In the case of `CC(=O)c1nn(CC(=O)N2C[C@H](F)C[C@H]2C(=O)Nc2cccc(Br)n2)c2ccc(O[C@@H]3CO[C@H]4[C@@H]3OC[C@H]4OC(=O)[C@@H](N)C(C)C)cc12` [Compound T-57, (3R,3aR,6R,6aR)-6-((3-acetyl-1-(2-((2S,4R)-2-((6-bromopyridin-2-yl)carbamoyl)-4-fluoropyrrolidin-1-yl)-2-oxoethyl)-1H-indazol-5-yl)oxy)hexahydrofuro[3,2-b]furan-3-yl L-valinate], the IC50 was less than 1 µM.

Consider `CC(=O)c1nn(CC(=O)N2C[C@H](F)C[C@H]2C(=O)Nc2nc(Br)ccc2C)c2ccc(O[C@@H]3CO[C@H]4[C@@H]3OC[C@H]4OC(=O)[C@@H](N)C(C)C)cc12` [Compound T-58, (3R,3aR,6R,6aR)-6-((3-acetyl-1-(2-((2S,4R)-2-((6-bromo-3-methylpyridin-2-yl)carbamoyl)-4-fluoropyrrolidin-1-yl)-2-oxoethyl)-lH-indazol-5-yl)oxy)hexahydrofuro[3,2-b]furan-3-yl L-valinate], for which the IC50 was less than 1 µM.

In the case of `CC(=O)c1nn(CC(=O)N2[C@H](C(=O)Nc3nc(Br)ccc3C)C[C@@]3(C)C[C@@H]23)c2ccc(OCCS(=O)(=O)CC3(C)COC3)cc12` [Compound T-59, (1R,5R)-2-(2-(3-acetyl-5-(2-(((3-methyloxetan-3-yl)methyl)sulfonyl)ethoxy)-1H-indazol-1-yl)acetyl)-N-(6-bromo-3-methylpyridin-2-yl)-5-methyl-2-azabicyclo[3.1.0]hexane-3-carboxamide], the IC50 is less than 1 µM.

Turning to `CS(=N)(=O)COc1ccc2c(C(N)=O)nn(CC(=O)N3C[C@H](F)C[C@H]3C(=O)Nc3cccc(-c4ccccc4Cl)c3F)c2c1` (stereo partly drawn) [Compound T-60, 1-(2-((2S,4R)-2-((2′-chloro-2-fluoro-[1,1′-biphenyl]-3-yl)carbamoyl)-4-fluoropyrrolidin-1-yl)-2-oxoethyl)-6-((S-methylsulfonimidoyl)methoxy)-1H-indazole-3-carboxamide], the IC50 was less than 1 µM.

For `C/S(COc1ccc2c(C(N)=O)nn(CC(=O)N3C[C@H](F)C[C@H]3C(=O)Nc3cccc(-c4ccccc4Cl)c3F)c2c1)=N\C#N` (stereo partly shown) [Compound T-61], the IC50 is less than 1 µM.

In the case of `CS(=O)(COc1ccc2c(C(N)=O)nn(CC(=O)N3C[C@H](F)C[C@H]3C(=O)Nc3cccc(-c4ccccc4Cl)c3F)c2c1)=NC#N` (stereo partly shown) [Compound T-62], the IC50 was less than 1 µM.

In the case of `CC(=O)O[C@@H]1CO[C@H]2[C@@H]1OC[C@H]2Oc1ccc2c(c1)c(C(C)=O)nn2CC(=O)N1C[C@H](F)C[C@H]1C(=O)Nc1cccc(Br)n1` [Compound T-63, (3R,3aR,6R,6aR)-6-((3-acetyl-1-(2-((2S,4R)-2-((6-bromopyridin-2-yl)carbamoyl)-4-fluoropyrrolidin-1-yl)-2-oxoethyl)-1H-indazol-5-yl)oxy)hexa-hydrofuro[3,2-b]furan-3-yl acetate], the IC50 is less than 1 µM.

Staying with this experiment, now noted: Table 7; read-out: IC5 (Stars).
As to `Cc1ccc(Br)nc1NC(=O)[C@@H]1C[C@@]2(C)C[C@H]2N1C(=O)Cn1nc(C(N)=O)c2cc(NC(=O)C3CCCC3(F)F)ccc21` (stereo partly drawn) [Compound T-65, 1-(2-((1R,3S,5R)-3-((6-bromo-3-methylpyridin-2-yl)carbamoyl)-5-methyl-2-azabicyclo[3.1.0]hexan-2-yl)-2-oxoethyl)-5-(2,2-difluorocyclopentane-1-carboxamido)-1H-indazole-3-carboxamide], the IC50 is less than 1 µM.

Turning to `CC(=O)c1nn(CC(=O)N2[C@H](C(=O)Nc3nc(Br)ccc3C)C[C@@]3(C)C[C@@H]23)c2c(C)cc(NC(=O)C3CCCC3(F)F)cc12` (stereo partly drawn) [Compound T-66, (1R,3S,5R)-2-(2-(3-acetyl-5-(2,2-difluorocyclopentane-1-carboxamido)-7-methyl-1H-indazol-1-yl)acetyl)-N-(6-bromo-3-methylpyridin-2-yl)-5-methyl-2-azabicyclo[3.1.0]hexane-3-carboxamide], the IC50 is less than 1 µM.

As for `CC(=O)c1nn(CC(=O)N2[C@H](C(=O)NCc3cccc(Cl)c3F)C[C@@]3(C)C[C@@H]23)c2c(C)cc(NC(=O)N3CCCC(F)(F)C3)cc12` [Compound T-67, (1R,3S,5R)-2-(2-(3-acetyl-5-(3,3-difluoropiperidine-1-carboxamido)-7-methyl-1H-indazol-1-yl)acetyl)-N-(3-chloro-2-fluorobenzyl)-5-methyl-2-azabicyclo[3.l.0]hexane-3-carboxamide], the IC50 was less than 1 µM.

For the molecule `CC(=O)c1nn(CC(=O)N2[C@H](C(=O)NCc3cccc(Cl)c3F)C[C@@]3(CNC(=O)COCCOCCNC(=O)COCCOCCNC(=O)CC[C@H](NC(=O)CCCCCCCCCCCCCCCCC(=O)O)C(=O)O)C[C@@H]23)c2c(C)cc(NC(=O)N3CCCC(F)(F)C3)cc12` [Compound T-68, (S)-1-((1R,3S,5R)-2-(2-(3-acetyl-5-(3,3-difluoropiperidine-1-carboxamido)-7-methyl-1H-indazol-1-yl)acetyl)-3-((3-chloro-2-fluorobenzyl)carbamoyl)-2-azabicyclo[3.1.0]hexan-5-yl)-24-carboxy-3,12,21,26-tetraoxo-5,8,14,17-tetraoxa-2,11,20,25-tetraazatritetracontan-43-oic acid], the IC50 was less than 1 µM.

Take `Cc1ccc(Br)nc1NC(=O)[C@@H]1C[C@@]2(CNC(=O)COCCOCCNC(=O)COCCOCCNC(=O)CC[C@H](NC(=O)CCCCCCCCCCCCCCCCC(=O)O)C(=O)O)C[C@H]2N1C(=O)Cn1nc(C(N)=O)c2cc(Nc3cccnc3)ccc21` [Compound T-71, (S)-1-((1R,3S,5R)-3-((6-bromo-3-methylpyridin-2-yl)carbamoyl)-2-(2-(3-carbamoyl-5-(pyridin-3-ylamino)-1H-indazol-1-yl)acetyl)-2-azabicyclo[3.1.0]hexan-5-yl)-24-carboxy-3,12,21,26-tetraoxo-5,8,14,17-tetraoxa-2,11,20,25-tetraazatritetracontan-43-oic acid]: the IC50 is less than 1 µM.

Regarding `CCOP(=O)(CC)COc1ccc2c(C(C)=O)nn(CC(=O)N3C[C@H](F)C[C@H]3C(=O)Nc3nc(Br)ccc3C)c2c1` (stereo partly drawn) [Compound T-77, ethyl (((3-acetyl-1-(2-((2S,4R)-2-((6-bromo-3-methylpyridin-2-yl)carbamoyl)-4-fluoropyrrolidin-1-yl)-2-oxoethyl)-1H-indazol-6-yl)oxy)methyl)(ethyl)phosphinate], the IC50 is less than 1 µM.

For `CCOP(=O)(COc1ccc2c(C(C)=O)nn(CC(=O)N3C[C@H](F)C[C@H]3C(=O)Nc3nc(Br)ccc3C)c2c1)OCC` [Compound T-78, diethyl (((3-acetyl-1-(2-((2S,4R)-2-((6-bromo-3-methylpyridin-2-yl)carbamoyl)-4-fluoropyrrolidin-1-yl)-2-oxoethyl)-1H-indazol-6-yl)oxy)methyl)phosphonate], the IC50 is less than 1 µM.

In the case of `CCP(=O)(O)COc1ccc2c(C(C)=O)nn(CC(=O)N3C[C@H](F)C[C@H]3C(=O)Nc3nc(Br)ccc3C)c2c1` [Compound T-79, (((3-acetyl-1-(2-((2S,4R)-2-((6-bromo-3-methylpyridin-2-yl)carbamoyl)-4-fluoropyrrolidin-1-yl)-2-oxoethyl)-1H-indazol-6-yl)oxy)methyl)(ethyl)phosphinic acid], the IC50 is less than 1 µM.

These data come from patent US11447465B2, “Pharmaceutical compounds for treatment of medical disorders” (Achillion Pharmaceuticals, Inc., priority 2017, dated 2022).
